Reference: patent US10577315B2, “Compositions and methods for treatment of prostate carcinoma” (Pellficure Pharmaceuticals, Inc., priority 2014, dated 2020)

Tests used:
Format in all cases: cell-based
[1] = tested on: PTEN-P2/GFP prostate cancer cells; assay: Effect of 1,4-naphthoquinone analogs on PTEN-P2/GFP cell proliferation (WST-1 cell viability, 24 h); details: Mus musculus, WST-1, medium with 10% FBS and DHT, read-out: PTEN-P2/GFP cell proliferation, percent of control
Description: Cells are grown in phenol red-free DMEM medium containing 10% FBS, 2 mM L-glutamine, 100 U/ml penicillin/100 μg/ml streptomycin, insulin-selenium-transferrin (5 μg/ml insulin), and DHT 10^−8M final. Androgen withdrawal is achieved by not adding DHT to the medium. Cells are maintained in a humidified incubator at 37° C. and 5% CO2. G418 (100 μg/ml) is added to maintain stable expression of H2B-GFP.
(§1) 100 microliters of PTEN-P2/GFP prostate cancer cells were plated at a density of 8000 cells/well in 96-well plates (triplicates) in growing medium containing 10% Fetal Bovine Serum and DHT. The next day, increasing concentrations of a 1,4-naphthoquinone analog (diluted from 10 mM DMSO stock solutions) were added. DMSO used as solvent for all analogs, was kept constant through the 96-well plates. The control consisted of DMSO alone. The cells were subsequently incubated for 24 hours at 37° C. and 5% CO2 in normal cell growth conditions. Cell viability was assessed by adding 9 μL/well of WST-1 reagent (Clontech), which measured mitochondrial activity of live cells. […] The incubation time was 3 hours at 37° C. Optical density of the cell samples was measured at 460 nm, by using plate reader Spectra Max 250 (Molecular Devices). The drug was determined to be cytotoxic when OD values show an inverse correlation with analog concentrations. The results are shown in TABLES 3.1-3.4, FIGS. 2A-2E, and FIGS. 3A-3D.

[2] = tested on: human fibrosarcoma HT1080 cells; assay: Dose response of 1,4-naphthoquinone analogs in human fibrosarcoma cells HT1080 (WST-1, 24 h)
Description: as §1, with “human fibrosarcoma HT1080” for “PTEN-P2/GFP prostate cancer”, “Serum, penicillin/streptomycin,” for “Serum”, “glutamine.” for “DHT.”, “concentrations.” for “concentrations. The results are shown in TABLES 3.1-3.4, FIGS. 2A-2E, and FIGS. 3A-3D.”

[3] = tested on: human breast cancer SKBR-3 cells; assay: Dose response of 1,4-naphthoquinone analogs in human breast cancer cells SKBR-3 (WST-1, 24 h)
Description: as §1, with “human breast” for “PTEN-P2/GFP prostate”, “cancer SKBR-3” for “cancer”, “Serum, penicillin/streptomycin,” for “Serum”, “glutamine.” for “DHT.”, “concentrations.” for “concentrations. The results are shown in TABLES 3.1-3.4, FIGS. 2A-2E, and FIGS. 3A-3D.”

O=C1C=C(Oc2ccc(OCc3ccccc3)cc2)C(=O)c2ccccc21 [Analog F06, 2-(4-(benzyloxy)phenoxy)-1,4-naphthoquinone]
activity at 1.2 µM [1]: 99.8% | activity at 2.5 µM [1]: 99.8% | activity at 5 µM [1]: 105% | activity at 7.5 µM [1]: 106% | activity at 10 µM [1]: 108% | activity at 15 µM [1]: 99.2% | activity at 20 µM [1]: 79.9% | proliferation of human fibrosarcoma HT1080 cells, percent of control ([2]; 1.2 μM): 82.93% of control | proliferation of human fibrosarcoma HT1080 cells, percent of control ([2]; 2.5 μM): 81.12% of control | proliferation of human fibrosarcoma HT1080 cells, percent of control ([2]; 5 μM): 80.24% of control | proliferation of human fibrosarcoma HT1080 cells, percent of control ([2]; 7.5 μM): 81.24% of control | proliferation of human fibrosarcoma HT1080 cells, percent of control ([2]; 10 μM): 50.19% of control | proliferation of human fibrosarcoma HT1080 cells, percent of control ([2]; 15 μM): 49.19% of control | proliferation of human fibrosarcoma HT1080 cells, percent of control ([2]; 20 μM): 46.81% of control | human SKBR-3 cell proliferation, percent of control ([3]; 1.2 μM): 152.32% of control | human SKBR-3 cell proliferation, percent of control ([3]; 2.5 μM): 147.42% of control | human SKBR-3 cell proliferation, percent of control ([3]; 5 μM): 134.16% of control | human SKBR-3 cell proliferation, percent of control ([3]; 7.5 μM): 151.41% of control | human SKBR-3 cell proliferation, percent of control ([3]; 10 μM): 136.66% of control | human SKBR-3 cell proliferation, percent of control ([3]; 15 μM): 125.96% of control | human SKBR-3 cell proliferation, percent of control ([3]; 20 μM): 21.95% of control

O=C1C=C(Oc2c(F)c(F)c(F)c(F)c2F)C(=O)c2ccccc21 [Analog F02, 2-(2,3,4,5,6-pentafluorophenoxy)-1,4-naphthoquinone]
activity at 2 µM [1]: 97.9% | activity at 3 µM [1]: 94.8% | activity at 4 µM [1]: 93.3% | activity at 5 µM [1]: 90.3% | activity at 6 µM [1]: 82.6% | activity at 7 µM [1]: 74.3% | activity at 10 µM [1]: 47.6% | activity at 15 µM [1]: 28.7% | activity at 25 µM [1]: 12.3% | proliferation of human fibrosarcoma HT1080 cells, percent of control ([2]; 1.2 μM): 84.28% of control | proliferation of human fibrosarcoma HT1080 cells, percent of control ([2]; 2.5 μM): 82.46% of control | proliferation of human fibrosarcoma HT1080 cells, percent of control ([2]; 5 μM): 82.96% of control | proliferation of human fibrosarcoma HT1080 cells, percent of control ([2]; 7.5 μM): 76.72% of control | proliferation of human fibrosarcoma HT1080 cells, percent of control ([2]; 10 μM): 74.71% of control | proliferation of human fibrosarcoma HT1080 cells, percent of control ([2]; 15 μM): 65.17% of control | proliferation of human fibrosarcoma HT1080 cells, percent of control ([2]; 20 μM): 63.04% of control | human SKBR-3 cell proliferation, percent of control ([3]; 1.2 μM): 107.66% of control | human SKBR-3 cell proliferation, percent of control ([3]; 2.5 μM): 116.47% of control | human SKBR-3 cell proliferation, percent of control ([3]; 5 μM): 107.37% of control | human SKBR-3 cell proliferation, percent of control ([3]; 7.5 μM): 94.47% of control | human SKBR-3 cell proliferation, percent of control ([3]; 10 μM): 75.45% of control | human SKBR-3 cell proliferation, percent of control ([3]; 15 μM): 35.60% of control | human SKBR-3 cell proliferation, percent of control ([3]; 20 μM): 3.02% of control

Cc1cc(Cl)ccc1OC1=CC(=O)c2ccccc2C1=O [Analog F07, 2-(4-chloro-2-methylphenoxy)-1,4-naphthoquinone]
activity at 2 µM [1]: 101% | activity at 3 µM [1]: 102% | activity at 4 µM [1]: 101% | activity at 5 µM [1]: 96% | activity at 6 µM [1]: 88.4% | activity at 7 µM [1]: 81.8% | activity at 10 µM [1]: 36.3% | activity at 15 µM [1]: 19.4% | activity at 25 µM [1]: 12.5% | proliferation of human fibrosarcoma HT1080 cells, percent of control ([2]; 1.2 μM): 85.35% of control | proliferation of human fibrosarcoma HT1080 cells, percent of control ([2]; 2.5 μM): 89.16% of control | proliferation of human fibrosarcoma HT1080 cells, percent of control ([2]; 5 μM): 76.04% of control | proliferation of human fibrosarcoma HT1080 cells, percent of control ([2]; 7.5 μM): 68.43% of control | proliferation of human fibrosarcoma HT1080 cells, percent of control ([2]; 10 μM): 69.89% of control | proliferation of human fibrosarcoma HT1080 cells, percent of control ([2]; 15 μM): 67.89% of control | proliferation of human fibrosarcoma HT1080 cells, percent of control ([2]; 20 μM): 69.50% of control | human SKBR-3 cell proliferation, percent of control ([3]; 1.2 μM): 143.50% of control | human SKBR-3 cell proliferation, percent of control ([3]; 2.5 μM): 160.12% of control | human SKBR-3 cell proliferation, percent of control ([3]; 5 μM): 131.48% of control | human SKBR-3 cell proliferation, percent of control ([3]; 7.5 μM): 68.35% of control | human SKBR-3 cell proliferation, percent of control ([3]; 10 μM): 12.78% of control | human SKBR-3 cell proliferation, percent of control ([3]; 15 μM): 2.70% of control | human SKBR-3 cell proliferation, percent of control ([3]; 20 μM): 6.29% of control

O=C1C=C(Oc2c(F)cc(F)cc2F)C(=O)c2ccccc21 [Analog F04, 2-(2,4,6-trifluorophenoxy)-1,4-naphthoquinone]
activity at 1.2 µM [1]: 101% | activity at 2.5 µM [1]: 101% | activity at 5 µM [1]: 83.3% | activity at 7.5 µM [1]: 17.6% | activity at 10 µM [1]: 2.09% | activity at 15 µM [1]: 1.47% | activity at 20 µM [1]: 2.64% | proliferation of human fibrosarcoma HT1080 cells, percent of control ([2]; 1.2 μM): 87.77% of control | proliferation of human fibrosarcoma HT1080 cells, percent of control ([2]; 2.5 μM): 81.64% of control | proliferation of human fibrosarcoma HT1080 cells, percent of control ([2]; 5 μM): 78.43% of control | proliferation of human fibrosarcoma HT1080 cells, percent of control ([2]; 7.5 μM): 84.86% of control | proliferation of human fibrosarcoma HT1080 cells, percent of control ([2]; 10 μM): 76.41% of control | proliferation of human fibrosarcoma HT1080 cells, percent of control ([2]; 15 μM): 69.17% of control | proliferation of human fibrosarcoma HT1080 cells, percent of control ([2]; 20 μM): 63.51% of control | human SKBR-3 cell proliferation, percent of control ([3]; 1.2 μM): 86.74% of control | human SKBR-3 cell proliferation, percent of control ([3]; 2.5 μM): 83.72% of control | human SKBR-3 cell proliferation, percent of control ([3]; 5 μM): 74.38% of control | human SKBR-3 cell proliferation, percent of control ([3]; 7.5 μM): 65.90% of control | human SKBR-3 cell proliferation, percent of control ([3]; 10 μM): 7.52% of control | human SKBR-3 cell proliferation, percent of control ([3]; 15 μM): 1.20% of control | human SKBR-3 cell proliferation, percent of control ([3]; 20 μM): 1.90% of control

CC(=O)Nc1ccc(OC2=CC(=O)c3ccccc3C2=O)cc1 [Analog F03, 2-(4-acetamidophenoxy)-1,4-naphthoquinone]
activity at 2 µM [1]: 97.8% | activity at 3 µM [1]: 97.1% | activity at 4 µM [1]: 97.1% | activity at 5 µM [1]: 97.1% | activity at 6 µM [1]: 85% | activity at 7 µM [1]: 76.2% | activity at 10 µM [1]: 43% | activity at 15 µM [1]: 20% | activity at 25 µM [1]: 9.61% | proliferation of human fibrosarcoma HT1080 cells, percent of control ([2]; 1.2 μM): 81.33% of control | proliferation of human fibrosarcoma HT1080 cells, percent of control ([2]; 2.5 μM): 85.67% of control | proliferation of human fibrosarcoma HT1080 cells, percent of control ([2]; 5 μM): 74.59% of control | proliferation of human fibrosarcoma HT1080 cells, percent of control ([2]; 7.5 μM): 72.11% of control | proliferation of human fibrosarcoma HT1080 cells, percent of control ([2]; 10 μM): 75.09% of control | proliferation of human fibrosarcoma HT1080 cells, percent of control ([2]; 15 μM): 55.37% of control | proliferation of human fibrosarcoma HT1080 cells, percent of control ([2]; 20 μM): 38.21% of control | human SKBR-3 cell proliferation, percent of control ([3]; 1.2 μM): 88.89% of control | human SKBR-3 cell proliferation, percent of control ([3]; 2.5 μM): 87.44% of control | human SKBR-3 cell proliferation, percent of control ([3]; 5 μM): 64.41% of control | human SKBR-3 cell proliferation, percent of control ([3]; 7.5 μM): 36.88% of control | human SKBR-3 cell proliferation, percent of control ([3]; 10 μM): 7.32% of control | human SKBR-3 cell proliferation, percent of control ([3]; 15 μM): 1.24% of control | human SKBR-3 cell proliferation, percent of control ([3]; 20 μM): 1.57% of control
